Key:
[1] = tested on: Rattus norvegicus; assay: Ratio of urinary excretion value (urinary volume) in treated rats to that in control rats, at a peroral dose of 1.6 mg/Kg; format: functional, Urine
[2] = tested on: Rattus norvegicus; assay: Effect on urinary excretion potassium and sodium after oral administration of 0.1 mg/kg to rats(potassium and sodium excretion in control rat is 0.179+/-0.038); format: functional, Urine
[3] = tested on: Rattus norvegicus; assay: Serum creatinine concentration measured after intraperitoneal administration of 1 mg/kg of compound to rats(vehicle 4.27+/-0.24); format: functional
[4] = target: Adenosine A2 receptor (Rattus norvegicus, UniProt P29276+P30543)
[5] = tested on: Rattus norvegicus; assay: Percent inhibition of Urea nitrogen by the compound given as ratio of UN value in treated to vehicle treated ones after intraperitoneal administration of 0.01 mg/kg of compound to rats(vehicle 143.9+/-12.2); format: functional; details: ip
[6] = tested on: Rattus norvegicus; assay: Effect on urinary excretion potassium and sodium after oral administration of 0.01 mg/kg to rats(potassium and sodium excretion in control rat is 0.191+/-0.020); format: functional, Urine
[7] = tested on: Rattus norvegicus; assay: Percent inhibition of Urea nitrogen by the compound given as ratio of UN value in treated to vehicle treated ones after intraperitoneal administration of 1 mg/kg of compound to rats(vehicle 171.5+/-7.7); format: functional; details: ip
[8] = tested on: Rattus norvegicus; assay: Serum creatinine concentration measured after intraperitoneal administration of 0.01 mg/kg of compound to rats(vehicle 4.09+/-0.39); format: functional
[9] = tested on: Rattus norvegicus; assay: Ratio of urinary excretion value (Na+ concentration) in treated rats to that in control rats, at a peroral dose of 0.01 mg/Kg; format: functional, Urine
[10] = tested on: Rattus norvegicus; assay: Effect on urinary excretion potassium and sodium after oral administration of 1.6 mg/kg to rats(potassium and sodium excretion in control rat is 0.173+/-0.015); format: functional, Urine
[11] = target: T1, Adenosine receptor A1 (Cavia porcellus, UniProt P47745)
T1 sequence (P47745 whole entry): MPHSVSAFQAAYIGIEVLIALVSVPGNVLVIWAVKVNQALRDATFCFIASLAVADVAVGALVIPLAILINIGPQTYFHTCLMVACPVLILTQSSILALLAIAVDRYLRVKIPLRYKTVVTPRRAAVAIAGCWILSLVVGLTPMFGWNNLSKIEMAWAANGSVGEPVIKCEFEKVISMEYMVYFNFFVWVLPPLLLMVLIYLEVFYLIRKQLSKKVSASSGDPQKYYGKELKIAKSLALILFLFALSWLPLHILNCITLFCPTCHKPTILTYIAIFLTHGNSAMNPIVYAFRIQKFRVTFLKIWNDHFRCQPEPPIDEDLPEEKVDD
Description: Binding affinity against adenosine A1 receptor in guinea pig forebrain membranes using N6-[3H]cyclohexyladenosine as radioligand

[12] = tested on: Rattus norvegicus; assay: Ratio of urinary excretion value (Na+ concentration) in treated rats to that in control rats, at a peroral dose of 1.6 mg/Kg; format: functional, Urine
[13] = tested on: Rattus norvegicus; assay: Ratio of sodium ion/potassium ion concentration in treated rats to that in control rats, at a peroral dose of 1.6 mg/Kg; format: functional
[14] = tested on: Rattus norvegicus; assay: Oral diuretic activity was measured after oral administration of 0.1 mg/kg to rats(control volume is 0.75+/-0.12); format: functional, Urine
[15] = tested on: Rattus norvegicus; assay: Ratio of sodium ion/potassium ion concentration in treated rats to that in control rats, at a peroral dose of 0.1 mg/Kg; format: functional
[16] = tested on: Rattus norvegicus; assay: Percent inhibition of Urea nitrogen by the compound given as ratio of UN value in treated to vehicle treated ones after intraperitoneal administration of 0.1 mg/kg of compound to rats(vehicle 165.3+/-4); format: functional; details: ip
[17] = tested on: Rattus norvegicus; assay: Percent inhibition of serum creatinine by the compound given as ratio of Cr value in treated to vehicle treated ones after intraperitoneal administration of 0.1 mg/kg of compound to rats(vehicle 5.08+/-0.14); format: functional; details: ip
[18] = tested on: Rattus norvegicus; assay: Urea nitrogen concentration measured after intraperitoneal administration of 0.01 mg/kg of compound to rats(vehicle 143.9+/-12.2); format: functional
[19] = tested on: Rattus norvegicus; assay: Urea nitrogen concentration measured after intraperitoneal administration of 1 mg/kg of compound to rats(vehicle 171.5+/-7.7); format: functional
[20] = tested on: Rattus norvegicus; assay: Percent inhibition of serum creatinine by the compound given as ratio of Cr value in treated to vehicle treated ones after intraperitoneal administration of 1 mg/kg of compound to rats(vehicle 4.27+/-0.24); format: functional; details: ip
[21] = tested on: Rattus norvegicus; assay: Percent inhibition of serum creatinine by the compound given as ratio of Cr value in treated to vehicle treated ones after intraperitoneal administration of 0.01 mg/kg of compound to rats(vehicle 4.09+/-0.39); format: functional; details: ip
[22] = tested on: Rattus norvegicus; assay: Ratio of urinary excretion value (urinary volume) in treated rats to that in control rats, at a peroral dose of 0.1 mg/Kg; format: functional, Urine
[23] = tested on: Rattus norvegicus; assay: Ratio of urinary excretion value (Na+ concentration) in treated rats to that in control rats, at a peroral dose of 0.1 mg/Kg; format: functional, Urine
[24] = tested on: Rattus norvegicus; assay: Urea nitrogen concentration measured after intraperitoneal administration of 0.1 mg/kg of compound to rats(vehicle 165.3+/-4); format: functional
[25] = tested on: Rattus norvegicus; assay: Serum creatinine concentration measured after intraperitoneal administration of 0.1 mg/kg of compound to rats(vehicle 5.08+/-0.14); format: functional
[26] = tested on: Rattus norvegicus; assay: Oral diuretic activity was measured after oral administration of 1.6 mg/kg to rats(control volume is 0.93+/-0.03); format: functional, Urine
[27] = tested on: Rattus norvegicus; assay: Ratio of sodium ion/potassium ion concentration in treated rats to that in control rats, at a peroral dose of 0.01 mg/Kg; format: functional
[28] = tested on: Rattus norvegicus; assay: Oral diuretic activity was measured after oral administration of 0.01 mg/kg to rats(control volume is 1.15+/-0.17); format: functional, Urine
[29] = tested on: Rattus norvegicus; assay: Ratio of urinary excretion value (urinary volume) in treated rats to that in control rats, at a peroral dose of 0.01 mg/Kg; format: functional, Urine
[30] = tested on: Rattus norvegicus; assay: Percent inhibition of serum creatinine by the compound given as ratio of Cr value in treated to vehicle treated ones after intraperitoneal administration of 1 mg/kg of compound to rats(vehicle 3.91+/-0.37); format: functional; details: ip
[31] = tested on: Rattus norvegicus; assay: Percent inhibition of Urea nitrogen by the compound given as ratio of UN value in treated to vehicle treated ones after intraperitoneal administration of 1 mg/kg of compound to rats(vehicle 107.7+/-15.2); format: functional; details: ip
[32] = tested on: Rattus norvegicus; assay: Urea nitrogen concentration measured after intraperitoneal administration of 1 mg/kg of compound to rats(vehicle 107.7+/-15.2); format: functional
[33] = tested on: Rattus norvegicus; assay: Ratio of urinary excretion value (urinary volume) in treated rats to that in control rats, at a peroral dose of 0.4 mg/Kg; format: functional, Urine
[34] = tested on: Rattus norvegicus; assay: Effect on urinary excretion potassium and sodium after oral administration of 0.4 mg/kg to rats(potassium and sodium excretion in control rat is 0.191+/-0.021); format: functional, Urine
[35] = tested on: Rattus norvegicus; assay: Percent inhibition of serum creatinine by the compound given as ratio of Cr value in treated to vehicle treated ones after intraperitoneal administration of 1 mg/kg of compound to rats(vehicle 2.89+/-0.42); format: functional; details: ip
[36] = tested on: Rattus norvegicus; assay: Oral diuretic activity was measured after oral administration of 1.6 mg/kg to rats(control volume is 0.82+/-0.05); format: functional, Urine
[37] = tested on: Rattus norvegicus; assay: Serum creatinine concentration measured after intraperitoneal administration of 1 mg/kg of compound to rats(vehicle 3.91+/-0.37); format: functional
[38] = tested on: Rattus norvegicus; assay: Oral diuretic activity was measured after oral administration of 0.4 mg/kg to rats(control volume is 0.99+/-0.07); format: functional, Urine
[39] = tested on: Rattus norvegicus; assay: Ratio of sodium ion/potassium ion concentration in treated rats to that in control rats, at a peroral dose of 0.4 mg/Kg; format: functional
[40] = tested on: Rattus norvegicus; assay: Serum creatinine concentration measured after intraperitoneal administration of 1 mg/kg of compound to rats(vehicle 2.89+/-0.42); format: functional
[41] = tested on: Rattus norvegicus; assay: Urea nitrogen concentration measured after intraperitoneal administration of 1 mg/kg of compound to rats(vehicle 128.9+/-9.3); format: functional
[42] = tested on: Rattus norvegicus; assay: Effect on urinary excretion potassium and sodium after oral administration of 1.6 mg/kg to rats(potassium and sodium excretion in control rat is 0.183+/-0.012); format: functional, Urine
[43] = tested on: Rattus norvegicus; assay: Percent inhibition of Urea nitrogen by the compound given as ratio of UN value in treated to vehicle treated ones after intraperitoneal administration of 1 mg/kg of compound to rats(vehicle 128.9+/-9.3); format: functional; details: ip
[44] = tested on: Rattus norvegicus; assay: Ratio of urinary excretion value (urinary volume) in treated rats to that in control rats, at a peroral dose of 6.25 mg/Kg; format: functional, Urine
[45] = tested on: Rattus norvegicus; assay: Ratio of urinary excretion value (Na+ concentration) in treated rats to that in control rats, at a peroral dose of 6.25 mg/Kg; format: functional, Urine
[46] = tested on: Rattus norvegicus; assay: Ratio of urinary excretion value (Na+ concentration) in treated rats to that in control rats, at a peroral dose of 0.4 mg/Kg; format: functional, Urine

`CC(C)Cn1c(=O)n(C)c(=O)c2[nH]c(C3CCCC3)nc21` was tested, and the T/C [1] was 2.12, the Na [2] was 0.308 m equiv 6hr-1 100g-1 and the Cr [3] was 2.54 mg/dL. It also gave a Ki [4] of 0.88 µM, an inhibition in vivo at 0.01 mg/kg [5] of 26% and a Na [6] of 0.257 m equiv 6hr-1 100g-1. For the same compound, the inhibition in vivo at 1 mg/kg [7] was 36%, the Cr [8] was 3.08 mg/dL and the T/C [9] was 1.35. For the same compound, the Na [10] was 0.379 m equiv 6hr-1 100g-1, the Ki [11] was 0.033 µM and the T/C [12] was 2.19. For the same compound, the “Na+/K+” value [13] was 1.57, the Urine volume [14] was 1.59 ml 6hr-1 100g-1 and the “Na+/K+” value [15] was 1.55. It also gave an inhibition in vivo at 0.1 mg/kg [16] of 35%, an inhibition in vivo at 0.1 mg/kg [17] of 45% and a UN [18] of 106.4 mg/dL. For the same compound, the UN [19] was 109.5 mg/dL, the inhibition in vivo at 1 mg/kg [20] was 40% and the inhibition in vivo at 0.01 mg/kg [21] was 25%. For the same compound, the T/C [22] was 2.12, the T/C [23] was 1.72 and the UN [24] was 107.3 mg/dL. The Cr [25] was 2.79 mg/dL, the Urine volume [26] was 1.97 ml 6hr-1 100g-1 and the “Na+/K+” value [27] was 1.22. The Urine volume [28] was 1.31 ml 6hr-1 100g-1 and the T/C [29] was 1.14.

`CCCn1c(=O)c2c(nc(C(C3CC3)C3CC3)n2C)n(CCC)c1=O` was tested, and the inhibition in vivo at 1 mg/kg [30] was -15%, the T/C [1] was 1.8 and the Ki [4] was 29 µM. For the same compound, the inhibition in vivo at 1 mg/kg [31] was 50%, the UN [32] was 54.1 mg/dL and the T/C [33] was 0.97. It also gave a Na [34] of 0.174 m equiv 6hr-1 100g-1, an inhibition in vivo at 1 mg/kg [35] of 44% and a T/C [12] of 1.48. The “Na+/K+” value [13] was 1.21, the Urine volume [36] was 1.48 ml 6hr-1 100g-1 and the Cr [37] was 4.49 mg/dL. The Urine volume [38] was 0.96 ml 6hr-1 100g-1, the “Na+/K+” value [39] was 0.94 and the Cr [40] was 1.63 mg/dL. It also gave a UN [41] of 136.5 mg/dL, a Na [42] of 0.271 m equiv 6hr-1 100g-1 and an inhibition in vivo at 1 mg/kg [43] of 6%. It also gave a T/C [44] of 1.78, a T/C [45] of 2.14 and a T/C [46] of 0.91.

Reference: ChEMBL document CHEMBL1125524, “Adenosine A1 antagonists. 2. Structure-activity relationships on diuretic activities and protective effects against acute renal failure” (J Med Chem, 1992)
